# Data from patent US9382255B2, “Substituted pyrrolopyrimidinylamino-benzothiazolones as MKNK kinase inhibitors” (BAYER PHARMA AKTIENGESELLSCHAFT, priority 2012, dated 2016).
# pIC50: −log10 of the molar value.
# Target: T1, human full-length MKNK1 (Homo sapiens, UniProt Q9BUB5, T385D)
# T1 construct: GST (N); purchased Carna Biosciences 02-145; host or cells: insect cells (baculovirus expression system)
# Assay: MKNK1 kinase high ATP assay (TR-FRET)
# Format: biochemical
# Details: high ATP (2 mM final), 15 min preincubation with enzyme, GST-MKNK1 (T344D)
# Description: MKNK1 Kinase High ATP Assay
# MKNK1-inhibitory activity at high ATP of compounds of the present invention after their preincubation with MKNK1 was quantified employing the TR-FRET-based MKNK1 high ATP assay as described in the following paragraphs.
# A recombinant fusion protein of Glutathione-S-Transferase (GST, N-terminally) and human full-length MKNK1 (amino acids 1-424 and T344D of accession number BAA 19885.1), expressed in insect cells using baculovirus expression system and purified via glutathione sepharose affinity chromatography, was purchased from Carna Biosciences (product no 02-145) and used as enzyme. As substrate for the kinase reaction the biotinylated peptide biotin-Ahx-IKKRKLTRRKSLKG (C-terminus in amide form) was used, which can be purchased e.g. from the company Biosyntan (Berlin-Buch, Germany).
# For the assay 50 nL of a 100 fold concentrated solution of the test compound in DMSO was pipetted into a black low volume 384 well microtiter plate (Greiner Bio-One, Frickenhausen, Germany), 2 μL of a solution of MKNK1 in aqueous assay buffer [50 mM HEPES pH 7.5, 5 mM MgCL2, 1.0 mM dithiothreitol, 0.005% (v/v) Nonidet-P40 (Sigma)] was added and the mixture was incubated for 15 min at 22° C. to allow pre-binding of the test compounds to the enzyme before the start of the kinase reaction. Then the kinase reaction was started by the addition of 3 μL of a solution of adenosine-tri-phosphate (ATP, 3.3 mM=>final conc. in the 5 μL assay volume is 2 mM) and substrate (0.1 μM=>final conc. in the 5 μL assay volume is 0.06 μM) in assay buffer and the resulting mixture was incubated for a reaction time of 30 min at 22° C. The concentration of MKNK1 was adjusted depending of the activity of the enzyme lot and was chosen appropriate to have the assay in the linear range, typical concentrations were in the range of 0.003 μg/mL. The reaction was stopped by the addition of 5 μL of a solution of TR-FRET detection reagents (5 nM streptavidine-XL665 [Cisbio Bioassays, Codolet, France] and 1 nM anti-ribosomal protein S6 (pSer236)-antibody from Invitrogen [#44921G] and 1 nM LANCE EU-W1024 Labeled ProteinG [Perkin-Elmer, product no. AD0071]) in an aqueous EDTA-solution (100 mM EDTA, 0.1% (w/v) bovine serum albumin in 50 mM HEPES pH 7.5).
# The resulting mixture was incubated for 1 h at 22° C. to allow the formation of complex between the phosphorylated biotinylated peptide and the detection reagents. Subsequently the amount of phosphorylated substrate was evaluated by measurement of the resonance energy transfer from the Eu-chelate to the streptavidine-XL. Therefore, the fluorescence emissions at 620 nm and 665 nm after excitation at 350 nm were measured in a TR-FRET reader, e.g. a Rubystar (BMG Labtechnologies, Offenburg, Germany) or a Viewlux (Perkin-Elmer). The ratio of the emissions at 665 nm and at […] was taken as the measure for the amount of phosphorylated substrate. The data were normalised (enzyme reaction without inhibitor=0% inhibition, all other assay components but no enzyme=100% inhibition).
# T1 sequence (Q9BUB5 1-424 isoform Q9BUB5-2 T344D): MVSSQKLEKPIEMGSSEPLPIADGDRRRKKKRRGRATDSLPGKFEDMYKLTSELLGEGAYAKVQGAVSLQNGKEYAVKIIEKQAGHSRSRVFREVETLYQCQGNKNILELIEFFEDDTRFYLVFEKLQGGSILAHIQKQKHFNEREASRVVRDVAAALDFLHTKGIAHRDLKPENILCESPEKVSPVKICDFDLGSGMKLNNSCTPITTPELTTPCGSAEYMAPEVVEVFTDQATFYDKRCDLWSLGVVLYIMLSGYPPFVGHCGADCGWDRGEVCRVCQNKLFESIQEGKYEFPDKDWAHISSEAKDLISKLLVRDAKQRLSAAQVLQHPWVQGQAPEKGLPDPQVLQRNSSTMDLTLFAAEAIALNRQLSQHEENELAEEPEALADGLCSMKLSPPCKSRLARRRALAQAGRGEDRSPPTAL
row,SMILES,pIC50
1,"O=C(c1[nH]c2ncnc(Nc3ccc4[nH]c(=O)sc4c3)c2c1Br)N1CCCCC1 [Example 33, 6-{[5-Bromo-6-(piperidin-1-ylcarbonyl)-7H-pyrrolo[2,3-d]pyrimidin-4-yl]amino}-1,3-benzothiazol-2(3H)-one]",7.62
2,C[C@@H]1COCCN1C(=O)c1cc2c(Nc3ccc4[nH]c(=O)sc4c3)ncnc2[nH]1 [Example 34],7.41
3,C[C@H]1COCCN1C(=O)c1cc2c(Nc3ccc4[nH]c(=O)sc4c3)ncnc2[nH]1 [Example 35],7.33
4,"O=C(c1cc2c(Nc3ccc4[nH]c(=O)sc4c3)ncnc2[nH]1)N1CCCCC1 [Example 36, 6-{[6-(Piperidin-1-ylcarbonyl)-7H-pyrrolo[2,3-d]pyrimidin-4-yl]amino}-1,3-benzothiazol-2(3H)-one]",7.85
